Here are results for one molecule from ChEMBL document CHEMBL5579832, “Design, synthesis, and biological evaluation of pyrido[2,3-d]pyrimidin-7(8H)-one derivatives as potent USP1 inhibitors” (Eur J Med Chem, 2024).

Activity calls are given as the source filed them. The rule behind the calls is not given here.

Assay [1] deals with T1, Ubiquitin carboxyl-terminal hydrolase 8 (Homo sapiens) (UniProt P40818).
T1 sequence (whole entry): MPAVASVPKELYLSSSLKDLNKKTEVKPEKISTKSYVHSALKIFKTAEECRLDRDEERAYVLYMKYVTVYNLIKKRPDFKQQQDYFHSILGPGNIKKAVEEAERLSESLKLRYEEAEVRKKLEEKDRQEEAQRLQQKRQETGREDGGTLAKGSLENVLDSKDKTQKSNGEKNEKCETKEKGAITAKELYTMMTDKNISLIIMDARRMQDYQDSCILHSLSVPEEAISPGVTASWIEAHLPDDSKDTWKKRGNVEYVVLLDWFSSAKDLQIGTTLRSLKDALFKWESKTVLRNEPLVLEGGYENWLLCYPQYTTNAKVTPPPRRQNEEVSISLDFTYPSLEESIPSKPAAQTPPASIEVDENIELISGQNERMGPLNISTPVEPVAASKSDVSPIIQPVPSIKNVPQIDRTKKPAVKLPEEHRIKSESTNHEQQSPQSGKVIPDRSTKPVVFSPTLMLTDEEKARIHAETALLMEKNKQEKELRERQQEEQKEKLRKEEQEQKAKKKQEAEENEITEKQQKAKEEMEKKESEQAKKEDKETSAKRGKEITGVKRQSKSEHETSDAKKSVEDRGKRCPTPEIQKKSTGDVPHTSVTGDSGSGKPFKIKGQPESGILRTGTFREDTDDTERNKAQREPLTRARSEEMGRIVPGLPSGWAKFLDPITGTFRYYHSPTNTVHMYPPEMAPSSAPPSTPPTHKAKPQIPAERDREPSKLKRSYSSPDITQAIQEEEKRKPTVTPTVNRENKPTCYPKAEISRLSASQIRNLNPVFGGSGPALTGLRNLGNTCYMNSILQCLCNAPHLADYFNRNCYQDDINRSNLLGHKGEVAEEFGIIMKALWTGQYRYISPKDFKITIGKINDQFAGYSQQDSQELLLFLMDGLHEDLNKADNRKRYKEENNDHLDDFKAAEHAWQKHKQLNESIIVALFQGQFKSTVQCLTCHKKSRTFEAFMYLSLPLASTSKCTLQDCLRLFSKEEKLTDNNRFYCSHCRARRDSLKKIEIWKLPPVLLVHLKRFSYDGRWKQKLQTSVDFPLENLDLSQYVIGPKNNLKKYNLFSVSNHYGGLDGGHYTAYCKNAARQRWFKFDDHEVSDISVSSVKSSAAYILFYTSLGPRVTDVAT
The assay can be described thus: Inhibition of recombinant human 6His-tagged USP8 using diubiquitin as a substrate at 0 to 10 uM preincubated for 15 mins followed by substrate addition and measured after 2 hrs by SDS-PAGE analysis. As to conditions: dose 0-10 µM, time 135.0 min.

In assay [2] the target is T2, Ubiquitin carboxyl-terminal hydrolase 4 (Homo sapiens) (UniProt Q13107).
T2 sequence (whole entry): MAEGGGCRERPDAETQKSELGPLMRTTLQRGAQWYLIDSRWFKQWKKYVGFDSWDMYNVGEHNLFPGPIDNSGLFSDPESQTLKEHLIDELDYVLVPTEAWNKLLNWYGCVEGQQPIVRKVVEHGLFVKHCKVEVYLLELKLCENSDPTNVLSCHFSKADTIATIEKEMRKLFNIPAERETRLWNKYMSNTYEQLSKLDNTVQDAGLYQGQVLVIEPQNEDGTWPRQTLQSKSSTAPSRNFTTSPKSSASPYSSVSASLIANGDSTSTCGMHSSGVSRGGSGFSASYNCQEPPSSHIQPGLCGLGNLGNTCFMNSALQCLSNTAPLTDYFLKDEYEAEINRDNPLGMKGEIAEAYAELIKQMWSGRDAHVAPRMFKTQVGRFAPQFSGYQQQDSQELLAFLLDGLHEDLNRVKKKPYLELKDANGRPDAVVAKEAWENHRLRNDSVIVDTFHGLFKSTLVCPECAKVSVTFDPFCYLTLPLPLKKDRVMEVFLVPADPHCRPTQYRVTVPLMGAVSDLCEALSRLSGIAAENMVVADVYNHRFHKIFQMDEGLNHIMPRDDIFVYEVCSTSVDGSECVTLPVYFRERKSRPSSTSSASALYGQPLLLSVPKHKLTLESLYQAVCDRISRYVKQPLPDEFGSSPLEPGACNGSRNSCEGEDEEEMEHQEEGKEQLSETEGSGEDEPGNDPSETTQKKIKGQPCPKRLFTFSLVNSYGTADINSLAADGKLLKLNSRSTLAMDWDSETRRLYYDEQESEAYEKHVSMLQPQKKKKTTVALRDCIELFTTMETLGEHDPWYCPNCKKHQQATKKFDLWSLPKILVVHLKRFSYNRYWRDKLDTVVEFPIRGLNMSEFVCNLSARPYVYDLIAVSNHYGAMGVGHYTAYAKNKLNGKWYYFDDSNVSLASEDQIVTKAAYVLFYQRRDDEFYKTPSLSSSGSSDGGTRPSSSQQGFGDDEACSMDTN
The assay can be described thus: Inhibition of recombinant human 6His-tagged USP4 using diubiquitin as a substrate at 0 to 10 uM preincubated for 15 mins followed by substrate addition and measured after 2 hrs by SDS-PAGE analysis. As to conditions: dose 0-10 µM, time 135.0 min.

In assay [3] the target is Ubiquitin carboxyl-terminal hydrolase 1/WD repeat-containing protein 48 (Homo sapiens) (UniProt O94782+Q8TAF3). In words: Non competitive inhibition of USP1/UAF1 complex (unknown origin) using Ub-7-amido-4-methylcoumarin as substrate at 0 to 200 nM incubated for 120 mins by Lineweaver-burk plot analysis. It is filed as protein-complex assay. As to conditions: dose 0-200 nM.

In the case of `COc1ncnc(C2CC2)c1-c1ncc2ccc(=O)n(Cc3ccc(-c4nc(C(F)(F)F)cn4C(C)C)cc3)c2n1`, the inhibition entry in assay [1] and in assay [2] was “inactive” each time. Besides, the inhibition entry in assay [3] is “Active”.
